Assay results published in US20090227674A1, “Combination methods fo saha and targretin for treating cancer” (priority 2005, published 2009).

Tested on: HH cells (CTCL cells; ATCC)
Assay: ViaLight Plus viability/proliferation assay, Vorinostat and Targretin combination
Type: cell-based
Description: Data from these assays was used to determine the range of combination concentrations. Both compounds were combined at concentrations close to their IC50 values. Subsequent combination viability/proliferation assays were performed using the ViaLight Plus protocol.
Costar white with clear bottom 96 well plates (#3603) were seeded with 25,000 cells per well in a volume of 100 μL/well of growth media for each time point. HH cell line growth media included RPMI (GIBCO #) with 10% FBS (GIBCO # SV30014.03), 1% Glutamax (GIBCO # 35050-061), and 1% Penicillin/Streptomycin (GIBCO # 30-002). […] For the fixed ratio method, compounds were combined and diluted together serially. […] For each treatment concentration, 25 μL of the appropriate dilution for each compound was added to the corresponding wells. Wells on the outer perimeter of the plate were not used. At each time-point, plates were read using the ViaLight Plus protocol. Luminescence was read using the Victor V plate reader.

| Structure (SMILES) | cytotoxicity at 0.37 µM (Homo sapiens, HH, read-out: decrease in cell viability) [%] | decrease in viability (HH cell line, 0.60 μM Targretin alone (FIG. 1A)) [%] |
| --- | --- | --- |
| O=C(CCCCCCC(=O)Nc1ccccc1)NO [Vorinostat, N-Hydroxy-N′-phenyl octanediamide] | ~40 | – |
| C=C(c1ccc(C(=O)O)cc1)c1cc2c(cc1C)C(C)(C)CCC2(C)C [Targretin®, 4-[1-(5,6,7,8-Tetrahydro-3,5,5,8,8-pentamethyl-2-naphthalenyl)ethenyl]benzoic acid] | – | ~40 |
